Measured values taken from patent US20060100226A1, “2-Thiopyrimidinones as therapeutic agents” (priority 2004, published 2006).

Assays:
murine MEKK2 (mMEKK2) [1] = molecular target: T1, murine MEKK2 (mMEKK2) (Mus musculus, UniProt Q61083); assay: TR-FRET kinase assay (mMEKK2/MBP); format: biochemical; settings: substrate biotin MBP, 60 minutes at room temperature
T1 sequence (Q61083 1-619): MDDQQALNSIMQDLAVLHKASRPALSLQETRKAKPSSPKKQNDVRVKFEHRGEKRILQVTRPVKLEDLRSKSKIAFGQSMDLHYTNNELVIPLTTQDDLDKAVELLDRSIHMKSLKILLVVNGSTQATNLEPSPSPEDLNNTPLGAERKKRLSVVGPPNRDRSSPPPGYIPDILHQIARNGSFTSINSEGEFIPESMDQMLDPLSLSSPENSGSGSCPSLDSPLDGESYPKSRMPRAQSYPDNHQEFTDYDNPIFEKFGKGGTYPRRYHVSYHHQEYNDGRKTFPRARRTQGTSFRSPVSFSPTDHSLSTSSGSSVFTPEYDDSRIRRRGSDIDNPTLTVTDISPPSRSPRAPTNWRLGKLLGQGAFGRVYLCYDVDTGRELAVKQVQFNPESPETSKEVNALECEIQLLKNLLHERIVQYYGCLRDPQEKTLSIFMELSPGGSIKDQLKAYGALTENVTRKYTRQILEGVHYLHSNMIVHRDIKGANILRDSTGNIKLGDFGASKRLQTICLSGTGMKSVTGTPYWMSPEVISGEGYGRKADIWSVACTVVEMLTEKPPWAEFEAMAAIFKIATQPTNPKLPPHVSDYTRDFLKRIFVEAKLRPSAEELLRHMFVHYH
Summary of the method: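 mMEKK2 was preincubated 10 min with compound in pH 7.5 Hepes/MgCl2/DTT/vanadate buffer, then biotin-MBP, anti-phospho-MBP antibody and ATP (5 uM solution added) were added and the reaction ran 60 min at room temperature. After EDTA stop, europium anti-mouse IgG and Cy5-streptavidin were added and TR-FRET was read at 615/665 nm.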

murine MEKK2 (mMEKK2) [2] = molecular target: T1, murine MEKK2 (mMEKK2); assay: MEKK2 PhosphoELISA (mMEKK2/MKK4); format: biochemical; settings: substrate MKK4/SKK1 (unactive), ATP final 10 μM, O.D. 450 nm
Source text: Another useful method for assessing protein kinase inhibition, and specifically MEKK2 inhibition, of compounds of the invention involves the MEKK2 phospho-antibody enzyme-linked immunosorbent assay (PhosphoELISA). This screening panel, which involves relatively few steps, is a useful indicator of potential inhibitors of MEKK2. Reactions to murine MEKK2 are observed as optical density measurements at an absorbance of 450 nm. Inhibitory activities can be expressed in terms of IC50, where IC50 is the molar concentration of compound required to inhibit protein kinase binding by 50%.
A phospho-antibody enzyme-linked immunosorbent assay (PhosphoELISA) was used to screen potential inhibitors of MEKK2. The assay was performed as follows: Compounds to be tested were weighed and solubilized in DMSO (Sigma) to a stock concentration of 10 mM. Serial dilutions starting from 1 mM were prepared with additional DMSO. These dilutions were further diluted to 250 μM in kinase reaction buffer [20 mM Hepes pH 7.5, 5 mM MgCl2, 1 mM DTT (Dithiothreitol-Sigma), 1 mM NaVO4 (sodium vanadate- Sigma). A 25 μl aliquot of this solution was transferred to a glutathione coated 96-well microplate (Pierce). A stock aliquot containing 50-125 ng of murine MEKK2 (mMEKK2) was added to each well and incubated on the microplate for 10 minutes at room temperature. A 25 μl solution of MKK4/SKK1 (unactive) was diluted 1:200 in kinase assay buffer and added to the reaction plate followed by 50 μl of 25 μM ATP (adenosine triphosphate) to afford a final well concentration of 10 μM. The reaction was allowed to proceed for 60 minutes at room temperature before washing 3 times with wash buffer [100 mM phosphate pH 7.5, 0.05% TWEEN 20 (Sigma)]. A solution of anti-phospho MKK4/SEK1 antibody (Calbiochem) and biotin anti rabbit IgG (Jackson Immunoresearch) was diluted 1:2500 in kinase reaction buffer and added to the appropriate wells. The reaction was incubated for 60 minutes at room temperature. The microplate was washed 3 times with wash buffer and 100 ul of streptavidin horseradish peroxidase (HRP-Pierce) was added and incubated for 30 minutes at room temperature. The microplate was washed 3 times with wash buffer and 100 μl of TMB (3,3′,5,5′-tetramethylbenzidine-Sigma) was added. The assay was allowed to develop for 15-20 minutes then the reaction was stopped with the addition of 100 μl of 0.2 N sulfuric acid. The optical density (O.D.) of the plate was read on the Victor™ plate reader using the absorbance at 450 nm.

## COc1cccc(-c2nc(SCc3cccc(NCc4ccc(Cl)c(Cl)c4)c3)[nH]c(=O)c2C#N)c1 [Example 1a, 2-[3-(3,4-Dichloro-benzylamino)-benzylsulfanyl]-4-(3-methoxy-phenyl)-6-oxo-1,6-dihydro-pyrimidine-5-carbonitrile]
Murine MEKK2 (mMEKK2) [1]
  IC50: < 1 µM
Murine MEKK2 (mMEKK2) [2]
  IC50: < 1 µM

## COc1ccc(-c2nc(SCc3cccc(NCc4ccc(Cl)c(Cl)c4)c3)[nH]c(=O)c2C#N)cc1OC [Example 1b, 2-[3-(3,4-Dichloro-benzylamino)-benzylsulfanyl]-4-(3,4-dimethoxy-phenyl)-6-oxo-1,6-dihydro-pyrimidine-5-carbonitrile]
Murine MEKK2 (mMEKK2) [1]
  IC50: < 5 µM
Murine MEKK2 (mMEKK2) [2]
  IC50: < 1 µM

## COc1ccc(-c2nc(SCc3cccc(NCc4ccc(Cl)c(Cl)c4)c3)[nH]c(=O)c2C#N)cc1-c1cccs1 [Example 1c]
Murine MEKK2 (mMEKK2) [1]
  IC50: < 5 µM
Murine MEKK2 (mMEKK2) [2]
  IC50: < 1 µM

## COc1cccc(-c2nc(SCc3cccc(NCc4cccc(Oc5ccc(Cl)cc5)c4)c3)[nH]c(=O)c2C#N)c1 [Example 1cc]
Murine MEKK2 (mMEKK2) [1]
  IC50: < 1 µM
Murine MEKK2 (mMEKK2) [2]
  IC50: < 1 µM

## COc1cccc(-c2nc(SCc3cccc(NCc4ccccc4)c3)[nH]c(=O)c2C#N)c1 [Example 1d]
Murine MEKK2 (mMEKK2) [1]
  IC50: < 5 µM
Murine MEKK2 (mMEKK2) [2]
  IC50: < 5 µM

## COc1cccc(-c2nc(SCc3cccc(NCc4ccc5cccc(O)c5n4)c3)[nH]c(=O)c2C#N)c1 [Example 1v]
Murine MEKK2 (mMEKK2) [1]
  IC50: < 1 µM
Murine MEKK2 (mMEKK2) [2]
  IC50: < 1 µM

## N#Cc1c(-c2ccccc2-c2cc3ccccc3s2)nc(SCc2cccc(NC(=O)c3ccc(Cl)c(Cl)c3)c2)[nH]c1=O [Example 2bb, N-{3-[4-(2-Benzo[b]thiophen-2-yl-phenyl)-5-cyano-6-oxo-1,6-dihydro-pyrimidin-2-ylsulfanylmethyl]-phenyl}-3,4-dichloro-benzamide]
Murine MEKK2 (mMEKK2) [1]
  IC50: < 5 µM
Murine MEKK2 (mMEKK2) [2]
  IC50: < 1 µM

## N#Cc1c(-c2ccccc2OC(F)(F)F)nc(SCc2cccc(NC(=O)c3ccc(Cl)c(Cl)c3)c2)[nH]c1=O [Example 2dd, 3,4-Dichloro-N-{3-[5-cyano-6-oxo-4-(2-trifluoromethoxy-phenyl)-1,6-dihydro-pyrimidin-2-ylsulfanylmethyl]-phenyl}-benzamide]
Murine MEKK2 (mMEKK2) [1]
  IC50: < 5 µM
Murine MEKK2 (mMEKK2) [2]
  IC50: < 5 µM

## N#Cc1c(-c2ccccc2C(F)(F)F)nc(SCc2cccc(NC(=O)c3ccc(Cl)c(Cl)c3)c2)[nH]c1=O [Example 2ee, 3,4-Dichloro-N-{3-[5-cyano-6-oxo-4-(2-trifluoromethyl-phenyl)-1,6-dihydro-pyrimidin-2-ylsulfanylmethyl]-phenyl}-benzamide]
Murine MEKK2 (mMEKK2) [1]
  IC50: < 10 µM
Murine MEKK2 (mMEKK2) [2]
  IC50: < 1 µM

## N#Cc1c(-c2ccc(C(F)(F)F)cc2)nc(SCc2cccc(NC(=O)c3ccc(Cl)c(Cl)c3)c2)[nH]c1=O [Example 2ff, 3,4-Dichloro-N-{3-[5-cyano-6-oxo-4-(4-trifluoromethyl-phenyl)-1,6-dihydro-pyrimidin-2-ylsulfanylmethyl]-phenyl}-benzamide]
Murine MEKK2 (mMEKK2) [1]
  IC50: < 5 µM
Murine MEKK2 (mMEKK2) [2]
  IC50: < 5 µM

## N#Cc1c(-c2cccc(C(F)(F)F)c2)nc(SCc2cccc(NC(=O)c3ccc(Cl)c(Cl)c3)c2)[nH]c1=O [Example 2gg, 3,4-Dichloro-N-{3-[5-cyano-6-oxo-4-(3-trifluoromethyl-phenyl)-1,6-dihydro-pyrimidin-2-ylsulfanylmethyl]-phenyl}-benzamide]
Murine MEKK2 (mMEKK2) [1]
  IC50: > 40 µM
Murine MEKK2 (mMEKK2) [2]
  IC50: < 5 µM

## COc1cccc(-c2nc(SCc3cccc(NC(=O)c4ccc(Cl)c(Cl)c4)c3)[nH]c(=O)c2C#N)c1 [Example 2h]
Murine MEKK2 (mMEKK2) [1]
  IC50: < 5 µM
Murine MEKK2 (mMEKK2) [2]
  IC50: < 5 µM

## N#Cc1c(-c2ccc(OC(F)(F)F)cc2)nc(SCc2cccc(NC(=O)c3ccc(Cl)c(Cl)c3)c2)[nH]c1=O [Example 2hh, 3,4-Dichloro-N-{3-[5-cyano-6-oxo-4-(4-trifluoromethoxy-phenyl)-1,6-dihydro-pyrimidin-2-ylsulfanylmethyl]-phenyl}-benzamide]
Murine MEKK2 (mMEKK2) [1]
  IC50: < 40 µM
Murine MEKK2 (mMEKK2) [2]
  IC50: < 20 µM

## COc1cccc(-c2nc(SCc3cccc(NC(=O)c4c(-c5ccccc5)noc4C)c3)[nH]c(=O)c2C#N)c1 [Example 2i]
Murine MEKK2 (mMEKK2) [1]
  IC50: < 10 µM
Murine MEKK2 (mMEKK2) [2]
  IC50: < 10 µM

## N#Cc1c(-c2cccc([N+](=O)[O-])c2)nc(SCc2cccc(NC(=O)c3ccc(Cl)c(Cl)c3)c2)[nH]c1=O [Example 2ii, 3,4-Dichloro-N-{3-[5-cyano-4-(3-nitro-phenyl)-6-oxo-1,6-dihydro-pyrimidin-2-ylsulfanylmethyl]-phenyl}-benzamide]
Murine MEKK2 (mMEKK2) [1]
  IC50: < 5 µM
Murine MEKK2 (mMEKK2) [2]
  IC50: < 1 µM

## COc1ccc(-c2nc(SCc3cccc(NC(=O)c4ccc(Cl)c(Cl)c4)c3)[nH]c(=O)c2C#N)cc1-c1cccs1 [Example 2y, 3,4-Dichloro-N-{3-[5-cyano-4-(4-methoxy-3-thiophen-2-yl-phenyl)-6-oxo-1,6-dihydro-pyrimidin-2-ylsulfanylmethyl]-phenyl}-benzamide]
Murine MEKK2 (mMEKK2) [1]
  IC50: < 5 µM
Murine MEKK2 (mMEKK2) [2]
  IC50: < 1 µM

## N#Cc1c(-c2cccc(-c3cc4ccccc4s3)c2)nc(SCc2cccc(NC(=O)c3ccc(Cl)c(Cl)c3)c2)[nH]c1=O [Example 2z, N-{3-[4-(3-Benzo[b]thiophen-2-yl-phenyl)-5-cyano-6-oxo-1,6-dihydro-pyrimidin-2-ylsulfanylmethyl]-phenyl}-3,4-dichloro-benzamide]
Murine MEKK2 (mMEKK2) [1]
  IC50: < 1 µM
Murine MEKK2 (mMEKK2) [2]
  IC50: < 1 µM

## N#Cc1c(-c2cccc(N)c2)nc(SCc2cccc(NC(=O)c3ccc(Cl)c(Cl)c3)c2)[nH]c1=O [Example 4n]
Murine MEKK2 (mMEKK2) [1]
  IC50: < 10 µM
Murine MEKK2 (mMEKK2) [2]
  IC50: < 10 µM
